Test results taken from ChEMBL document CHEMBL6109159, “Discovery of a Potent and Selective Protein Arginine Methyltransferase 5 (PRMT5) PROTAC Degrader” (J Med Chem, 2025).
Activity calls are given as the source filed them. No cut-off for these calls is given here.

What was measured:
[1] = molecular target: T1, von Hippel-Lindau disease tumor suppressor/Protein arginine N-methyltransferase 5 (Homo sapiens, UniProt O14744+P40337); assay: PROTAC activity at PRMT5/VHL in human MDA-MB-468 cells assessed as degradation pretreated with GSKi (EPZ015666) followed by treated at 5 uM of compound after 24 hrs by Western blot analysis; type: cell-based
Target sequence in this assay (O14744 whole entry, looked up): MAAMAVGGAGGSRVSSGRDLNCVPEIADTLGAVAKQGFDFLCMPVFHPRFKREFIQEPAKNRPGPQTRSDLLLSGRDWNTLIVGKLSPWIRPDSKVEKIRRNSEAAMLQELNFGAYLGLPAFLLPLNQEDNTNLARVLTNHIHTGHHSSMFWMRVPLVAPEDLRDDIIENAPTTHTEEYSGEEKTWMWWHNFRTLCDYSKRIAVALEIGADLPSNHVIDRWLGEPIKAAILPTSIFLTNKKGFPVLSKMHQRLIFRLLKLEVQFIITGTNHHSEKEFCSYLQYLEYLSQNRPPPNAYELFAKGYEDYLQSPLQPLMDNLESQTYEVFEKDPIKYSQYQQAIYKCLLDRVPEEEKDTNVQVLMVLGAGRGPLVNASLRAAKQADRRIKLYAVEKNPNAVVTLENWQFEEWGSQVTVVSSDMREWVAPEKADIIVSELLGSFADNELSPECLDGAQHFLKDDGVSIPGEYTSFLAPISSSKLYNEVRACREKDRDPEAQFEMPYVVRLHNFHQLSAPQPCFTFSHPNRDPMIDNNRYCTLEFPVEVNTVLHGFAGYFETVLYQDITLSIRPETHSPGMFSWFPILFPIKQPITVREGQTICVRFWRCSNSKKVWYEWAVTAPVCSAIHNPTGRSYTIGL
Target sequence in this assay (P40337 whole entry, looked up): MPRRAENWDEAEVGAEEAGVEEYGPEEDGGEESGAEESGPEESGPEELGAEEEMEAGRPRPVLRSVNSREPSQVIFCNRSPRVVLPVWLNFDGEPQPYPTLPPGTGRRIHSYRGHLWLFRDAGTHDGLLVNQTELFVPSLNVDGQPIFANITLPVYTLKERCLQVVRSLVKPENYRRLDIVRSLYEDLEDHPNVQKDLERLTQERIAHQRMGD

[2] = molecular target: T1, von Hippel-Lindau disease tumor suppressor/Protein arginine N-methyltransferase 5; assay: PROTAC activity at PRMT5/VHL in VHL KO human MDA-MB-468 cells assessed as degradation at 5 uM of compound after 24 hrs by Western blot analysis; type: cell-based
Target sequence in this assay (O14744 whole entry, looked up): as the sequence (O14744 whole entry, looked up) above
Target sequence in this assay (P40337 whole entry, looked up): as the sequence (P40337 whole entry, looked up) above

[3] = molecular target: T2, von Hippel-Lindau disease tumor suppressor/Methylosome protein WDR77 (Homo sapiens, UniProt Q9BQA1+P40337); assay: PROTAC activity at MEP50/VHL in human MDA-MB-231 cells assessed as degradation at 0.5 uM after 3 days by Western blot analysis; type: cell-based; details: time 3.0 day
[4] = molecular target: T1, von Hippel-Lindau disease tumor suppressor/Protein arginine N-methyltransferase 5; assay: PROTAC activity at PRMT5/VHL in human MDA-MB-468 cells assessed as degradation pretreated with MLN4924 neddylation inhibitor followed by treated at 5 uM of compound after 24 hrs by Western blot analysis; type: cell-based
Target sequence in this assay (O14744 whole entry, looked up): as the sequence (O14744 whole entry, looked up) above
Target sequence in this assay (P40337 whole entry, looked up): as the sequence (P40337 whole entry, looked up) above

[5] = system: MDA-MB-468; assay: Cytotoxicity against human MDA-MB-468 cells assessed as cell viability measured after 7 days by CCK-8 assay; type: functional; details: MDA-MB-468, 168 h, time 7 day
[6] = molecular target: T1, von Hippel-Lindau disease tumor suppressor/Protein arginine N-methyltransferase 5; assay: PROTAC activity at PRMT5/VHL in human MDA-MB-468 cells assessed as degradation pretreated with VHL-1 followed by treated at 5 uM of compound after 24 hrs by Western blot analysis; type: cell-based
Target sequence in this assay (O14744 whole entry, looked up): as the sequence (O14744 whole entry, looked up) above
Target sequence in this assay (P40337 whole entry, looked up): as the sequence (P40337 whole entry, looked up) above

[7] = system: MDA-MB-453; assay: Growth inhibition of human MDA-MB-453 cells assessed as cell viability measured after 5 days by CCK-8 assay; type: functional, cell-based; details: time 5.0 day
[8] = system: MDA-MB-231; assay: Growth inhibition of human MDA-MB-231 cells assessed as cell viability measured after 5 days by CCK-8 assay; type: functional, cell-based; details: time 5.0 day
[9] = molecular target: T1, von Hippel-Lindau disease tumor suppressor/Protein arginine N-methyltransferase 5; assay: PROTAC activity at PRMT5/VHL in human MDA-MB-468 cells assessed as degradation at 2 uM by Western blot analysis; type: cell-based; details: time 3-48 hrs
Target sequence in this assay (O14744 whole entry, looked up): as the sequence (O14744 whole entry, looked up) above
Target sequence in this assay (P40337 whole entry, looked up): as the sequence (P40337 whole entry, looked up) above

[10] = molecular target: T2, von Hippel-Lindau disease tumor suppressor/Methylosome protein WDR77; assay: PROTAC activity at MEP50/VHL in human MDA-MB-468 cells assessed as degradation at 2 uM by Western blot analysis; type: cell-based; details: time 3-48 hrs
[11] = molecular target: T1, von Hippel-Lindau disease tumor suppressor/Protein arginine N-methyltransferase 5; assay: PROTAC activity at PRMT5/VHL in human MDA-MB-453 cells assessed as degradation at 0.5 uM after 3 days by Western blot analysis; type: cell-based; details: time 3.0 day
Target sequence in this assay (O14744 whole entry, looked up): as the sequence (O14744 whole entry, looked up) above
Target sequence in this assay (P40337 whole entry, looked up): as the sequence (P40337 whole entry, looked up) above

[12] = molecular target: T1, von Hippel-Lindau disease tumor suppressor/Protein arginine N-methyltransferase 5; assay: PROTAC activity at […]/VHL in human MDA-MB-468 cells assessed as relative protein level at 0.5 uM measured after 24 hrs by Western blot analysis; type: cell-based
[13] = molecular target: T1, von Hippel-Lindau disease tumor suppressor/Protein arginine N-methyltransferase 5; assay: PROTAC activity at PRMT5/VHL in human MCF-10A cells assessed as degradation at 0.5 to 5 uM after 3 days by Western blot analysis; type: cell-based; details: dose 0.5-5 µM, time 3.0 day
[14] = molecular target: T2, von Hippel-Lindau disease tumor suppressor/Methylosome protein WDR77; assay: PROTAC activity at MEP50/VHL in human MDA-MB-468 cells assessed as relative protein level at 0.5 uM measured after 24 hrs by Western blot analysis; type: cell-based
[15] = molecular target: T2, von Hippel-Lindau disease tumor suppressor/Methylosome protein WDR77; assay: PROTAC activity at MEP50/VHL in human MDA-MB-468 cells assessed as maximal degradation measured after 72 hrs by Western blot analysis relative to control; type: cell-based
[16] = system: MCF-10A; assay: Cytotoxicity against human MCF10A cells assessed as cell viability up to 15 uM measured after 5 days by CCK-8 assay; type: toxicity, cell-based; details: 120 h, time 5 day
[17] = molecular target: T2, von Hippel-Lindau disease tumor suppressor/Methylosome protein WDR77; assay: PROTAC activity at MEP50/VHL in human MDA-MB-468 cells assessed as relative protein level at 5 uM measured after 24 hrs by Western blot analysis; type: cell-based
[18] = molecular target: T2, von Hippel-Lindau disease tumor suppressor/Methylosome protein WDR77; assay: PROTAC activity at MEP50/VHL in human MDA-MB-468 cells assessed as downregulation of MEP50 at 2 uM of compound after 24 hrs by mass spectrometry (MS)-based global proteomic study; type: cell-based
[19] = molecular target: T2, von Hippel-Lindau disease tumor suppressor/Methylosome protein WDR77; assay: PROTAC activity at MEP50/VHL in human MCF7 cells assessed as degradation at 0.5 uM after 3 days by Western blot analysis; type: cell-based; details: time 3.0 day
[20] = molecular target: T1, von Hippel-Lindau disease tumor suppressor/Protein arginine N-methyltransferase 5; assay: PROTAC activity at PRMT5/VHL in human MDA-MB-468 cells assessed as degradation measured after 72 hrs by Western blot analysis; type: cell-based
Target sequence in this assay (O14744 whole entry): as the sequence (O14744 whole entry, looked up) above
Target sequence in this assay (P40337 whole entry): as the sequence (P40337 whole entry, looked up) above

[21] = molecular target: T2, von Hippel-Lindau disease tumor suppressor/Methylosome protein WDR77; assay: PROTAC activity at MEP50/VHL in human PC-3 cells assessed as degradation at 0.004 to 2.5 uM after 7 hrs by Western blot analysis; type: cell-based; details: dose 0.004-2.5 µM
[22] = molecular target: T1, von Hippel-Lindau disease tumor suppressor/Protein arginine N-methyltransferase 5; assay: PROTAC activity at PRMT5/VHL in human MDA-MB-453 cells assessed as degradation at 5 uM after 3 days by Western blot analysis; type: cell-based; details: time 3.0 day
[23] = molecular target: T2, von Hippel-Lindau disease tumor suppressor/Methylosome protein WDR77; assay: PROTAC activity at MEP50/VHL in human MDA-MB-453 cells assessed as degradation at 0.5 uM after 3 days by Western blot analysis; type: cell-based; details: time 3.0 day
[24] = molecular target: T2, von Hippel-Lindau disease tumor suppressor/Methylosome protein WDR77; assay: PROTAC activity at MEP50/VHL in human PNT2 cells assessed as degradation at 0.5 to 5 uM after 3 days by Western blot analysis; type: cell-based; details: dose 0.5-5 µM, time 3.0 day
[25] = molecular target: T1, von Hippel-Lindau disease tumor suppressor/Protein arginine N-methyltransferase 5; assay: PROTAC activity at PRMT5/VHL in human MDA-MB-468 cells assessed as degradation pretreated with MG132 proteasome inhibitor followed by treated at 5 uM of compound after 24 hrs by Western blot analysis; type: cell-based
[26] = Plasma concentration in Swiss albino mouse at 50 mg/kg, ip measured after 8 hrs by LC-MS/MS analysis; type: ADME, organism-based
[27] = molecular target: T1, von Hippel-Lindau disease tumor suppressor/Protein arginine N-methyltransferase 5; assay: PROTAC activity at PRMT5/VHL in human PC-3 cells assessed as degradation at 0.004 to 2.5 uM after 7 hrs by Western blot analysis; type: cell-based; details: dose 0.004-2.5 µM
[28] = molecular target: T2, von Hippel-Lindau disease tumor suppressor/Methylosome protein WDR77; assay: PROTAC activity at MEP50/VHL in human MDA-MB-453 cells assessed as degradation at 5 uM after 3 days by Western blot analysis; type: cell-based; details: time 3.0 day
[29] = system: MCF7; assay: Growth inhibition of human MCF7 cells assessed as cell viability measured after 5 days by CCK-8 assay; type: functional, cell-based; details: time 5.0 day
[30] = molecular target: T2, von Hippel-Lindau disease tumor suppressor/Methylosome protein WDR77; assay: PROTAC activity at MEP50/VHL in VHL KO human MDA-MB-468 cells assessed as degradation at 5 uM of compound after 24 hrs by Western blot analysis; type: cell-based
[31] = system: PC-3; assay: Inhibition of sDMA (symmetric dimethylarginine) level in human PC-3 cells at 2 uM measured after 7 days by Western blot analysis; type: functional, cell-based; details: time 7.0 day
[32] = molecular target: T1, von Hippel-Lindau disease tumor suppressor/Protein arginine N-methyltransferase 5; assay: PROTAC activity at PRMT5/VHL in human MCF7 cells assessed as degradation at 5 uM after 3 days by Western blot analysis; type: cell-based; details: time 3.0 day
[33] = molecular target: T1, von Hippel-Lindau disease tumor suppressor/Protein arginine N-methyltransferase 5; assay: PROTAC activity at PRMT5/VHL in human MDA-MB-231 cells assessed as degradation at 5 uM after 3 days by Western blot analysis; type: cell-based; details: time 3.0 day
[34] = PROTAC activity at PRMT5/VHL in human PNT2 cells assessed as degradation at 0.5 to 5 uM after 3 days by Western blot analysis; details: dose 0.5-5 µM, time 3.0 day
[35] = molecular target: T1, von Hippel-Lindau disease tumor suppressor/Protein arginine N-methyltransferase 5; assay: PROTAC activity at PRMT5/VHL in VHL KO human MDA-MB-468 cells assessed as degradation at 0.5 uM of compound after 24 hrs by Western blot analysis; type: cell-based

T2 sequence (P40337 whole entry, looked up): as above
T2 sequence (Q9BQA1 whole entry, looked up): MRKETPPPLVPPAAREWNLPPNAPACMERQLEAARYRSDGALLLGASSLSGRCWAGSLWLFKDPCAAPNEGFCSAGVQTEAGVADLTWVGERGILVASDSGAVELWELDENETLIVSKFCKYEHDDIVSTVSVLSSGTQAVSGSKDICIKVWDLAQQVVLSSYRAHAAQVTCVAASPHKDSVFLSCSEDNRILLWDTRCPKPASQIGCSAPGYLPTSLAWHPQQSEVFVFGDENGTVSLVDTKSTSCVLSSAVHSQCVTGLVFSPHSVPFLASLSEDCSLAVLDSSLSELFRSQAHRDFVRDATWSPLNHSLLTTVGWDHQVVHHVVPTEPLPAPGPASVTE

Cc1ncsc1-c1ccc([C@H](CC(=O)NCCOCCOCCOCCOCCOCCC(=O)N2CCC(Nc3cc(C(=O)NC[C@H](O)CN4CCc5ccccc5C4)ncn3)CC2)NC(=O)[C@@H]2C[C@@H](O)CN2C(=O)[C@@H](NC(=O)C2(F)CC2)C(C)(C)C)cc1
Activity [1]: inactive
Activity [2]: Not active; Complete Rescue Not Observed - Due To Incomplete Vhl Ko
Activity [3]: Active
Activity [4]: inactive
GI50 [5]: 5.6 µM
Activity [6]: inactive
growth inhibition (GI) [7]: Active
growth inhibition (GI) [8]: Active
Activity [9]: Time-dependent-effect
Activity [10]: Time-dependent-effect
Activity [11]: Active
Activity [12]: Active
Activity [13]: 100%
Activity [14]: Active
Emax [15]: 91.4%
Activity [16]: Non-toxic
Activity [17]: Active
Activity [18]: Active
Activity [19]: Active
DC50 [20]: 0.0174 µM
Activity [21]: Active
Activity [22]: Active
Activity [23]: Active
Activity [24]: 100%
Activity [25]: inactive
concentration at 8 h [26]: 200 nM
Activity [27]: Active
Activity [28]: Active
growth inhibition (GI) [29]: Active
Activity [30]: Not active; Complete Rescue Not Observed - Due To Incomplete Vhl Ko
inhibition [31]: Active
Activity [32]: Active
Activity [33]: Active
Activity [34]: 100%
Activity [35]: Not active; Complete Rescue Not Observed - Due To Incomplete Vhl Ko
